Experimental data published in ChEMBL document CHEMBL5550160, “Leveraging a rationally designed veliparib-based anilide eliciting anti-leukemic effects for the design of pH-responsive polymer nanoformulation” (Eur J Med Chem, 2024).
The source made the active and inactive calls. No cut-off for these calls is given here.

Columns and labels:
[1] = biological target: T1, Histone deacetylase 1 (Homo sapiens, UniProt Q13547); assay: Inhibition of HDAC1 (unknown origin) using p53 residues 379 to 382 [RHKK(Ac)] as fluorogenic substrate assessed as residual activity at 1 x 10^-5M (reference value: 98.06%); conditions: dose 1.0 10^-5M
[2] = biological target: T2, Histone deacetylase 2 (Homo sapiens, UniProt Q92769); assay: Inhibition of HDAC2 (unknown origin) assessed as residual activity at 5.08 x 10^-10M (reference value: 99.81%); conditions: dose 5.08 10^-10M
[3] = biological target: T3, Histone deacetylase 8 (Homo sapiens) (UniProt Q9BY41); assay: Inhibition of HDAC8 (unknown origin) assessed as residual activity at 1.23 x 10^-7M (reference value: 100%); conditions: dose 1.23 10^-7M
T3 sequence (whole entry): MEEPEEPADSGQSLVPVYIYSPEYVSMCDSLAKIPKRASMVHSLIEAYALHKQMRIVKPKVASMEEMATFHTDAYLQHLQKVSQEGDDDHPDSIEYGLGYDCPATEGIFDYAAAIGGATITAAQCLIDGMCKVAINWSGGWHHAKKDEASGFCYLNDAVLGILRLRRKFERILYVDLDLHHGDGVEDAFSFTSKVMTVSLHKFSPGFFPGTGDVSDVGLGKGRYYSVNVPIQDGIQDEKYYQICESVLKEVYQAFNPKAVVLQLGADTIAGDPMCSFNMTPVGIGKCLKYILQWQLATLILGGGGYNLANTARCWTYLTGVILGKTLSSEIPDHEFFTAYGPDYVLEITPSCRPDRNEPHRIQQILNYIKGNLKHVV

[4] = biological target: T1, Histone deacetylase 1; assay: Inhibition of HDAC1 (unknown origin) using p53 residues 379 to 382 [RHKK(Ac)] as fluorogenic substrate assessed as residual activity at 4.12 x 10^-8M (reference value: 98.06%); conditions: dose 4.12 10^-8M
[5] = biological target: Histone deacetylase 5 (Homo sapiens) (UniProt Q9UQL6); assay: Inhibition of HDAC5 (unknown origin) assessed as residual activity at 4.57 x 10^-9M (reference value: 100%); conditions: dose 4.57 10^-9M
[6] = system: HL-60; assay: Downregulation of PARP-2 protein expression in human HL-60 cells by Western blot analysis; format: functional, cell-based
[7] = biological target: T3, Histone deacetylase 8 (Homo sapiens); assay: Inhibition of HDAC8 (unknown origin) assessed as residual activity at 1.1 x 10^-6M (reference value: 100%); conditions: dose 1.1 10^-6M
[8] = biological target: Histone deacetylase 9 (Homo sapiens) (UniProt Q9UKV0); assay: Inhibition of HDAC9 (unknown origin) assessed as residual activity at 1 x 10^-5M (reference value: 97.55%); conditions: dose 1.0 10^-5M
[9] = biological target: T1, Histone deacetylase 1; assay: Inhibition of HDAC1 (unknown origin) using p53 residues 379 to 382 [RHKK(Ac)] as fluorogenic substrate
[10] = system: HL-60; assay: Induction of apoptosis in human HL-60 cells assessed as DNA fragmentation at 0.5 to 1 times IC50 by DAPI staining based microscopic analysis; format: functional, cell-based
[11] = system: HL-60; assay: Induction of apoptosis in human HL-60 cells assessed as cell blebbing at 0.5 to 1 times IC50 by DAPI staining based microscopic analysis; format: functional
[12] = biological target: Histone deacetylase 4 (Homo sapiens) (UniProt P56524); assay: Inhibition of HDAC4 (unknown origin) assessed as residual activity at 5.08 x 10^-10M (reference value: 98.90%); conditions: dose 5.08 10^-10M
[13] = biological target: Histone deacetylase 5 (Homo sapiens) (UniProt Q9UQL6); assay: Inhibition of HDAC5 (unknown origin) assessed as residual activity at 1.23 x 10^-7M (reference value: 100%); conditions: dose 1.23 10^-7M
[14] = system: A549; assay: cells; format: functional, cell-based; conditions: Homo sapiens
Description: Antiproliferative activity against human A549 cells assessed as inhibition of cell growth by MTT assay

[15] = biological target: Histone deacetylase 5 (Homo sapiens) (UniProt Q9UQL6); assay: Inhibition of HDAC5 (unknown origin) assessed as residual activity at 1.1 x 10^-6M (reference value: 100%); conditions: dose 1.1 10^-6M
[16] = biological target: Histone deacetylase 9 (Homo sapiens) (UniProt Q9UKV0); assay: Inhibition of HDAC9 (unknown origin) assessed as residual activity at 1.37 x 10^-8M (reference value: 97.55%); conditions: dose 1.37 10^-8M
[17] = system: SiHa; assay: cells; format: functional, cell-based; conditions: Homo sapiens
Description: Antiproliferative activity against human SiHa cells assessed as inhibition of cell growth by MTT assay

[18] = biological target: Histone deacetylase 4 (Homo sapiens) (UniProt P56524); assay: Inhibition of HDAC4 (unknown origin) assessed as residual activity at 1.1 x 10^-6M (reference value: 98.90%); conditions: dose 1.1 10^-6M
[19] = biological target: Histone deacetylase 4 (Homo sapiens) (UniProt P56524); assay: Inhibition of HDAC4 (unknown origin) assessed as residual activity at 1.23 x 10^-7M (reference value: 98.90%); conditions: dose 1.23 10^-7M
[20] = biological target: T3, Histone deacetylase 8 (Homo sapiens); assay: Inhibition of HDAC8 (unknown origin) assessed as residual activity at 3.70 x 10^-7M (reference value: 100%); conditions: dose 3.7 10^-7M
[21] = biological target: Histone deacetylase 5 (Homo sapiens) (UniProt Q9UQL6); assay: Inhibition of HDAC5 (unknown origin) assessed as residual activity at 1.37 x 10^-8M (reference value: 100%); conditions: dose 1.37 10^-8M
[22] = biological target: T1, Histone deacetylase 1; assay: Inhibition of HDAC1 (unknown origin) using p53 residues 379 to 382 [RHKK(Ac)] as fluorogenic substrate assessed as residual activity at 3.33 x 10^-6M (reference value: 98.06%); conditions: dose 3.33 10^-6M
[23] = biological target: T2, Histone deacetylase 2; assay: Inhibition of HDAC2 (unknown origin) assessed as residual activity at 4.57 x 10^-9M (reference value: 99.81%); conditions: dose 4.57 10^-9M
[24] = system: HL-60; assay: Induction of autophagy in human HL-60 cells assessed as conversion of LC3-I to LC3-II at 0.5 to 1 times IC50 by Western blot analysis; format: functional, cell-based
[25] = biological target: T4, Polyamine deacetylase HDAC10 (Homo sapiens) (UniProt Q969S8); assay: Inhibition of HDAC10 (unknown origin) assessed as residual activity at 4.12 x 10^-8M (reference value: 101.54%); conditions: dose 4.12 10^-8M
T4 sequence (whole entry): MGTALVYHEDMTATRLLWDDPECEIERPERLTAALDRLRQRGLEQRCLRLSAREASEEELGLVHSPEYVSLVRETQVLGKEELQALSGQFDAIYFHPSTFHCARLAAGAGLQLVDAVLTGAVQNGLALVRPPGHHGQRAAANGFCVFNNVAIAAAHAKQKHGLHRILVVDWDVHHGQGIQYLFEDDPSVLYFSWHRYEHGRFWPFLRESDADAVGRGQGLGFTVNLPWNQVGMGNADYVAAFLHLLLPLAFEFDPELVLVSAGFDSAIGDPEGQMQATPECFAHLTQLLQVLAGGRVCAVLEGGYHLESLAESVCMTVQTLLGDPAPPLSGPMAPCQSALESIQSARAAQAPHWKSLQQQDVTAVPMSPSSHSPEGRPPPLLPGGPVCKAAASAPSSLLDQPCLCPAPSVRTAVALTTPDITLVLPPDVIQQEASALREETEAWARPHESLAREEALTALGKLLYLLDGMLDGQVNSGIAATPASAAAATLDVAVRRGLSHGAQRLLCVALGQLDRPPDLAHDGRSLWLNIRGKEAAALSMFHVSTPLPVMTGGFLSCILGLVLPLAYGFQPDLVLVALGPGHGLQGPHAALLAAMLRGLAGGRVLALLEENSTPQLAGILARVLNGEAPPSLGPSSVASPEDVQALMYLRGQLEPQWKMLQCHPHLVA

[26] = biological target: Histone deacetylase 5 (Homo sapiens) (UniProt Q9UQL6); assay: Inhibition of HDAC5 (unknown origin) assessed as residual activity at 3.33 x 10^-6M (reference value: 100%); conditions: dose 3.33 10^-6M

T1 sequence (Q13547 whole entry, the tested form may be a part): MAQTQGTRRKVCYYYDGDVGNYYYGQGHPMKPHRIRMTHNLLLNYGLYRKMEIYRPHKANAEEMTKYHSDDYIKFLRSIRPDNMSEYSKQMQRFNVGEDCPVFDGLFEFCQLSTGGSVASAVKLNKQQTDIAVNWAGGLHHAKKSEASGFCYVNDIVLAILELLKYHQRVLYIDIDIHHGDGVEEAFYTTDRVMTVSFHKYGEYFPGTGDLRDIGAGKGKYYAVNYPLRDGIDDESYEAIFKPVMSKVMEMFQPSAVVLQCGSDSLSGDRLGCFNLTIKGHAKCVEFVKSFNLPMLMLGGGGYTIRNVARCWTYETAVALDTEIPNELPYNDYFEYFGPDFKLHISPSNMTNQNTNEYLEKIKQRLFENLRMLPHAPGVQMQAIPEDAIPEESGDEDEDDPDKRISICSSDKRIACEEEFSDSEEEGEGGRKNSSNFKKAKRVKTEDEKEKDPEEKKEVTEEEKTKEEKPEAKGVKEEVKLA
Histone deacetylase 5 (Homo sapiens), sequence (Q9UQL6 whole entry, the tested form may be a part): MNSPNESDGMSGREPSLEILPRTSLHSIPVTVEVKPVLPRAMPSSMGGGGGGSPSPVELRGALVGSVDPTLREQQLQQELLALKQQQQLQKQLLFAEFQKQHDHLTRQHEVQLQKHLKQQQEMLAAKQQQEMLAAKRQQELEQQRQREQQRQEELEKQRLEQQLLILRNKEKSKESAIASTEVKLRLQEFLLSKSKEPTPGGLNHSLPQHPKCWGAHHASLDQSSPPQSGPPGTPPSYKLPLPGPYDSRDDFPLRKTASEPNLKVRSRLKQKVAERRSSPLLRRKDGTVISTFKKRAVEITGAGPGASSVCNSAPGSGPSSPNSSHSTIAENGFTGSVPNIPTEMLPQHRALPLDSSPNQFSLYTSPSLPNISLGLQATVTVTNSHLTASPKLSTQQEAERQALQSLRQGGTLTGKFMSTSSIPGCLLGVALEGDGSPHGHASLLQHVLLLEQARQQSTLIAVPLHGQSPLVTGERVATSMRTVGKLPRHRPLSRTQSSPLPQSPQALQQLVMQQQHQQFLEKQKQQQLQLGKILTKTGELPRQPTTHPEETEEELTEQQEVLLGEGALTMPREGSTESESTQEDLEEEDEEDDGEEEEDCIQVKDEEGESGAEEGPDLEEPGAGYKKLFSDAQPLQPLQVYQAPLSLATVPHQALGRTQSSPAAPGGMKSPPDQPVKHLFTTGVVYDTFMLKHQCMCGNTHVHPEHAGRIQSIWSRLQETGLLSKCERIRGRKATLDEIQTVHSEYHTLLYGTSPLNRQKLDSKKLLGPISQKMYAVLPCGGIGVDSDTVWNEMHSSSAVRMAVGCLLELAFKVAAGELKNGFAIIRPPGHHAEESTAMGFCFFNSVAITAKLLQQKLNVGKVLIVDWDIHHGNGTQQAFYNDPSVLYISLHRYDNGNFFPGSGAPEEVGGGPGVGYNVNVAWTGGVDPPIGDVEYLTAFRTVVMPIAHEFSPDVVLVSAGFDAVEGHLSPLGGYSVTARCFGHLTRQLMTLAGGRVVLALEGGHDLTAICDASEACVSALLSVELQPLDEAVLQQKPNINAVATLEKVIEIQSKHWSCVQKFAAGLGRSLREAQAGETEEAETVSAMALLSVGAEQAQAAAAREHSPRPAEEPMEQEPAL
Histone deacetylase 4 (Homo sapiens), sequence (P56524 whole entry): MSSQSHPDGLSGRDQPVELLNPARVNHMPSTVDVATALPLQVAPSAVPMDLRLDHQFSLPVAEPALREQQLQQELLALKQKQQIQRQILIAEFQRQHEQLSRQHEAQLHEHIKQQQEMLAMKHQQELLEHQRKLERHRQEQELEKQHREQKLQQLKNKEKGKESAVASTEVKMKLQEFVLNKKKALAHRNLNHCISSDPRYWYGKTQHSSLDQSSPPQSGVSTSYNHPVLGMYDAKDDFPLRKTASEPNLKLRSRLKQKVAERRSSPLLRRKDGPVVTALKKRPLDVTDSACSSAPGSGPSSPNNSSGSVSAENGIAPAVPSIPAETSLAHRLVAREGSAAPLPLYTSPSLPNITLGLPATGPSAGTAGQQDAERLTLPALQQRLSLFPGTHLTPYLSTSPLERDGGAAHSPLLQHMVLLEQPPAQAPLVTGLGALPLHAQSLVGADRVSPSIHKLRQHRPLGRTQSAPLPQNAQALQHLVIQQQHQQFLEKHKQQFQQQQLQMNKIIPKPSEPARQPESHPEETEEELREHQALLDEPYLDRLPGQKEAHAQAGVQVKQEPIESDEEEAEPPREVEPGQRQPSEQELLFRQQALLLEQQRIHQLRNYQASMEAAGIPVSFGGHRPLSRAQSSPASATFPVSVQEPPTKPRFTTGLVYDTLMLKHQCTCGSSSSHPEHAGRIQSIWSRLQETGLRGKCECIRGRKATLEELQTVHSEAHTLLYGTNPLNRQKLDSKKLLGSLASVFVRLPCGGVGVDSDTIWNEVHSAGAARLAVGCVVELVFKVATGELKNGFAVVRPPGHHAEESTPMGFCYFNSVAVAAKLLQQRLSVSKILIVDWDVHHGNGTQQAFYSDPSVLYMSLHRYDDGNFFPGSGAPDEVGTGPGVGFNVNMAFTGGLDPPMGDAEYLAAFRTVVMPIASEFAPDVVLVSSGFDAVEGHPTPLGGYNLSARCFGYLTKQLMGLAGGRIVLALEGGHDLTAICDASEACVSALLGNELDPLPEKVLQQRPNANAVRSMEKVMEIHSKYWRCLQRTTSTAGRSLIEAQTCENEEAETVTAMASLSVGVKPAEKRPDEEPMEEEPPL
Histone deacetylase 9 (Homo sapiens), sequence (Q9UKV0 whole entry, the tested form may be a part): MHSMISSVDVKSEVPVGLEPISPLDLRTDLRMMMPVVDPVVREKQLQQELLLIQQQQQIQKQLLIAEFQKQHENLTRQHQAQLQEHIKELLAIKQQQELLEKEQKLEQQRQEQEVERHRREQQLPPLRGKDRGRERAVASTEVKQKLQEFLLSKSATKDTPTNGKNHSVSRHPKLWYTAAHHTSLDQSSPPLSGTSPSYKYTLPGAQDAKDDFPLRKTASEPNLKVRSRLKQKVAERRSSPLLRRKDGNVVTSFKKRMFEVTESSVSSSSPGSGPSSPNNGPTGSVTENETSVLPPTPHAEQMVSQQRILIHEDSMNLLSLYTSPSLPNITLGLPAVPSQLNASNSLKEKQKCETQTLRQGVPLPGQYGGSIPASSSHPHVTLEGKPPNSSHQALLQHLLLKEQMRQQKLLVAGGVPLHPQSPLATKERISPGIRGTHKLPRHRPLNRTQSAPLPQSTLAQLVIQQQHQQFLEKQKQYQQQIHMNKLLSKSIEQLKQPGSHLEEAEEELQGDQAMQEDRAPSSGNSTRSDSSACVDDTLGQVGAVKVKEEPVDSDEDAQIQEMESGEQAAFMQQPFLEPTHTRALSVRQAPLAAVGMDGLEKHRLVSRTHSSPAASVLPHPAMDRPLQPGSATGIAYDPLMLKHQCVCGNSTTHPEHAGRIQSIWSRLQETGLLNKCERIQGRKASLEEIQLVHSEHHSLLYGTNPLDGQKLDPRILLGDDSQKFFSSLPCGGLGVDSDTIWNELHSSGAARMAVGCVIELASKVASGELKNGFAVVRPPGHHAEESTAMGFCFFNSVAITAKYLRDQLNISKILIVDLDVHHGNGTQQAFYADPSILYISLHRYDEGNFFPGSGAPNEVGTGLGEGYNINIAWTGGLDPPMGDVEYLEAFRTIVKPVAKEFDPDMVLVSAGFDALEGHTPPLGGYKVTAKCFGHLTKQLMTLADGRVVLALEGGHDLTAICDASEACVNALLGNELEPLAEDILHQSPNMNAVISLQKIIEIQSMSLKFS
T2 sequence (Q92769 whole entry): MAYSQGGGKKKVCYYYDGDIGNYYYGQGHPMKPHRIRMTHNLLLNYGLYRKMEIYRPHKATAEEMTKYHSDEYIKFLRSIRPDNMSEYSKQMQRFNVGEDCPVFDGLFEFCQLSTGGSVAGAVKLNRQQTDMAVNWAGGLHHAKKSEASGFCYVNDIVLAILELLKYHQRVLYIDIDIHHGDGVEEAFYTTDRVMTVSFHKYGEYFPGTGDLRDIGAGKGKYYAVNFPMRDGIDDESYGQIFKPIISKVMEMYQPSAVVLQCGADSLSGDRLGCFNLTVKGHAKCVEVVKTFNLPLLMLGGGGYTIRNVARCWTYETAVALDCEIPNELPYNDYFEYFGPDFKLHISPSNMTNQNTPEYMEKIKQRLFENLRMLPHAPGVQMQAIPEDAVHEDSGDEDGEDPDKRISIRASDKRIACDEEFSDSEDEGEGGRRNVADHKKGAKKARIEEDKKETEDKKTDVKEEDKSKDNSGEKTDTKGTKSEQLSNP

Activity [1]: 12.3%
Activity [2]: 98.2%
Activity [3]: 104%
Activity [4]: 51.3%
Activity [5]: 82.1%
Activity [7]: 104%
Activity [8]: 100%
IC50 [9]: 50 nM
Activity [12]: 96.7%
Activity [13]: 89.6%
IC50 [14]: > 5000 nM
Activity [15]: 93%
Activity [16]: 84.9%
IC50 [17]: > 10000 nM
Activity [18]: 76.5%
Activity [19]: 85%
Activity [20]: 99.5%
Activity [21]: 84%
Activity [22]: 6.73%
Activity [23]: 89.2%
Activity [25]: 102%
Activity [26]: 85.7%
SMILES: NC(=O)c1cccc2[nH]c(-c3ccc(NCc4ccc(C(=O)Nc5ccccc5N)cc4)cc3)nc12
Activity [6]: Active
Activity [10]: inactive
Activity [11]: inactive
Activity [24]: Dose-Dependent Effect
